Results taken from EP4585599A1, “NITROGEN-CONTAINING FUSED RING COMPOUND, INTERMEDIATE THEREOF, PREPARATION METHOD THEREFOR AND USE THEREOF” (Hangzhou Synrx Therapeutics Biomedical Technology Co., Ltd., priority 2022, dated 2024).
Where “and” joins values, the source holds several entries; their conditions need not be identical. Equal entries are not always repeated. Where two headings read alike, the source gives them in different places.

Tests used:
[1] = target: T1, helicase domain of the Pol θ protein (Homo sapiens, UniProt O75417); assay: Biochemical Activity Assay (ADP Glo Assay) of Pol θ inhibitor, ATPase activity
T1 construct: The helicase domain of the Pol θ protein was purified from insect protein expression system; made in house; host or cells: insect protein expression system

cells = details: Homo sapiens, DLD-1, 240 h
[2] = ADP-Glo assay, ATPase activity of Pol θ helicase domain, ssDNA substrate, read-out: Biochemical assay IC50
[3] = ADP-Glo, ssDNA substrate, 60 min at room temperature, read-out: Biochemical assay IC50
[4] = read-out: Cell viability assay IC50 (nM), CTG assay, CellTiter Glo, read on Day 10, cell line not given
[5] = read-out: Cell viability assay IC50 (nM), CTG on Day 10, cell line not given (method: DLD1 and DLD1^-/- cells)
[6] = read-out: Biochemical assay IC50

T1 sequence (O75417 102-554 limits assumed): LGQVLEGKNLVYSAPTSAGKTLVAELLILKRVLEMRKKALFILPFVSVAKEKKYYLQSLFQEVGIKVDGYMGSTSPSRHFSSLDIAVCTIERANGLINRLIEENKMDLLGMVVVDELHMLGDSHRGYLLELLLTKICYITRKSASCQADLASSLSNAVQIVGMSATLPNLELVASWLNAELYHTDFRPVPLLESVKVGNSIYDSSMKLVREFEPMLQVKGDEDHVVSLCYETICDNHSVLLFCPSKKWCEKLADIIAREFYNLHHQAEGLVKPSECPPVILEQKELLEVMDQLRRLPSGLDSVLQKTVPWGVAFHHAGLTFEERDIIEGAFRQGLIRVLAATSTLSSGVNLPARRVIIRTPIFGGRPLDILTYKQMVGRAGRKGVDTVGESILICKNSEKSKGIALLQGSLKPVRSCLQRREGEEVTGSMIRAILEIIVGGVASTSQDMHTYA

SMILES	IC50 [1, 2]	IC50 [1, 3]	IC50 (cells; [4])	IC50 (cells; [5])	also measured
COc1cnc(Cl)cc1-c1cc(C)ncc1C(=O)Nc1nc2cnc(N3CCC(O)CC3)nc2s1 [Example 52]	2.62 nM	< 50 nM	20.7 nM	< 100 nM	
COc1cnc(Cl)cc1-c1cc(C)ncc1C(=O)Nc1nc2ccc(N3CCC(C)(O)CC3)cc2s1 [Example 48]	26.4 nM	< 50 nM	165 nM	100 to 500 nM	
COc1cnc(Cl)cc1-c1cc(C)ncc1C(=O)Nc1nc2c(C(N)=O)cc(-c3c(C)cnn3C)cc2s1 [Example 165]	16.9 nM		446 nM		
COc1cnc(Cl)cc1-c1cc(C)ncc1C(=O)Nc1nc2ccc(-c3ccncc3Cl)nc2s1 [Example 82]	6.71 nM	< 50 nM	104 nM	100 to 500 nM	
COc1cnc(Cl)cc1-c1cc(C)ncc1C(=O)Nc1nc2ccc(N3CCC(O)CC3)c(F)c2s1 [Example 104]	1.56 nM	< 50 nM	5.62 nM	< 100 nM	
COc1cnc(Cl)cc1-c1cc(C)ncc1C(=O)Nc1nc2ccc(N3CC[C@H](O)C[C@H]3C)nc2s1 [Example 136]	25.8 nM		121 nM		
[2H]C([2H])([2H])n1ncc(C)c1-c1cc2sc(NC(=O)c3cnc(C)cc3-c3cc(Cl)ncc3OC)nc2cn1 [Example 149]	2.29 nM		3.54 nM		
COc1cnc(Cl)cc1-c1cc(C)ncc1C(=O)Nc1nc2ncc(NC3CCN(S(C)(=O)=O)CC3)cc2s1 [Example 69]	4.28 nM	< 50 nM	92.6 nM	< 100 nM	
COc1cccc(F)c1-c1cc(C)ncc1C(=O)Nc1nc2ccc(C3=CCC(O)CC3)nc2s1 (centres unmarked) [Example 5]	81.5 nM	50 to 200 nM	153 nM	100 to 500 nM	
COc1cnc(Cl)cc1-c1cc(C)ncc1C(=O)Nc1nc2c(F)nc(N3CCC(O)CC3)cc2s1 [Example 123]	10.5 nM		24.2 nM		
COc1cnc(Cl)cc1-c1cc(C)ncc1C(=O)Nc1nc2ccc(C3=CCC(O)CC3)nc2s1 (centres unmarked) [Example 1, 2'-chloro-N-(5-(4-hydroxycyclohex-1-en-1-yl)thiazol[5,4-b]pyridin-2-yl)-5'-methoxy-6-methyl-[4,4'-bipyridine]-3-carboxamide]					IC50 ([1]; Biochemical assay IC50 (nM)): < 50 nM and 7.07 nM
COc1cnc(Cl)cc1-c1cc(C)ncc1C(=O)Nc1nc2cnc(-c3ccc(S(F)(F)(F)(F)F)cc3)cc2s1 [Example 188]	36.7 nM		< 1.52 nM		
COc1cnc(Cl)cc1-c1cc(C)ncc1C(=O)Nc1nc2cc(C3CCC(O)CC3)cnc2s1 (centres unmarked) [Example 35]	251 nM	200 to 500 nM	3290 nM	> 1000 nM	
COc1cnc(Cl)cc1-c1cc(C)ncc1C(=O)Nc1nc2ncc(N3CCC(NS(C)(=O)=O)CC3)cc2s1 [Example 68]	1.39 nM	< 50 nM	1120 nM	> 1000 nM	
COc1cnc(Cl)cc1-c1cc(C)ncc1C(=O)Nc1nc2ncc(C(C)(C)O)cc2s1 [Example 95, 2'-chloro-N-(6-(2-hydroxypropan-2-yl)thiazolo[4,5-b]pyridin-2-yl)-5'-methoxy-6-methyl-[4,4'-bipyridine]-3-carboxamide]	8.94 nM	< 50 nM	383 nM	100 to 500 nM	
COc1cnc(Cl)cc1-c1cc(C)ncc1C(=O)Nc1nc2ccc(N3CCC(O)C3)nc2s1 (centres unmarked) [Example 47]	53 nM	50 to 200 nM	631 nM	500 to 1000 nM	
COc1cnc(Cl)cc1-c1cc(C)ncc1C(=O)Nc1nc2ncc(C3=CCC(O)CC3)nc2s1 (centres unmarked) [Example 12]	2.41 nM	< 50 nM	15.3 nM	< 100 nM	
COc1cnc(C(F)F)cc1-c1cc(C)ncc1C(=O)Nc1nc2cnc(-c3c(F)cnn3C)cc2s1 [Example 173]	2.93 nM				
COc1cnc(Cl)cc1-c1cc(C)ncc1C(=O)Nc1nc2c(F)cc(C3=CCC(O)CC3)cc2s1 (centres unmarked) [Example 13]	2.89 nM	< 50 nM	5.84 nM	< 100 nM	
COc1cnc(Cl)cc1-c1cc(C)ncc1C(=O)Nc1nc2ncc(C3=CCC(O)CC3)cc2s1 (centres unmarked) [Example 3]	2.51 nM	< 50 nM	13.6 nM	< 100 nM	

SMILES	IC50 [1, 2]	IC50 [1, 3]	IC50 (cells; [4])	IC50 (cells; [5])	also measured
[2H]C([2H])([2H])Oc1cnc(Cl)cc1-c1cc(C([2H])([2H])[2H])ncc1C(=O)Nc1nc2cnc(-c3c(C)nnn3C)c(F)c2s1 [Example 231, 2'-chloro-N-(6-(1,4-dimethyl-1H-1,2,3-triazol-5-yl)-7-fluorothiazolo[4,5-c]pyridin-2-yl)-5'-(methoxy-d3)-6-(methyl-d3)-[4,4'-bipyridine]-3-carboxamide]	3.08 nM				
COc1cnc(Cl)cc1-c1cc(C)ncc1C(=O)Nc1nc2ccc(N3CCN(C)CC3)nc2s1 [Example 43, 2'-chloro-5'-methoxy-6-methyl-N-(5-(4-methylpiperazin-1-yl)thiazol[5,4-b]pyridin-2-yl)-[4,4'-bipyridine]-3-carboxamide]					IC50 ([1]; Biochemical assay IC50 (nM)): 50 to 200 nM and 51.9 nM
COc1cnc(Cl)cc1-c1cc(C)ncc1C(=O)Nc1nc2cnc(-c3c(F)cnn3CCO)cc2s1 [Example 168]			4.46 nM		
COc1cnc(Cl)cc1-c1cc(C)ncc1C(=O)Nc1nc2cnc(-c3c(C)nnn3C)c(OC)c2s1 [Example 229, 2'-chloro-N-(6-(1,4-dimethyl-1H-1,2,3-triazol-5-yl)-7-methoxythiazolo[4,5-c]pyridin-2-yl)-5'-methoxy-6-methyl-[4,4'-bipyridine]-3-carboxamide]	36.7 nM				
COc1cnc(Cl)c(F)c1-c1cc(C)ncc1C(=O)Nc1nc2c(s1)CN(CC1CCOC1)CC2 (centres unmarked) [Example 40, 2'-chloro-3'-fluoro-5'-methoxy-6-methyl-N-(5-((tetrahydrofuran-3-yl)methyl)-4,5,6,7-hexahydrothiazolo[5,4-c]pyridin-2-yl)-[4,4'-bipyridine]-3-carboxamide]					IC50 ([1]; Biochemical assay IC50 (nM)): 50 to 200 nM and 14.9 nM
COc1ccccc1-c1cnncc1C(=O)Nc1nc2ccc(-c3ccn[nH]3)nc2s1 [Comparative Example 2, reference compound]	307 nM				
COc1cnc(Cl)cc1-c1cc(C)ncc1C(=O)Nc1nc2cnc(-c3c(C)nnn3C)c(C#N)c2s1 [Example 228, 2'-chloro-N-(7-cyano-6-(1,4-dimethyl-1H-1,2,3-triazol-5-yl)thiazolo[4,5-c]pyridin-2-yl)-5'-methoxy-6-methyl-[4,4'-bipyridine]-3-carboxamide]	111 nM				
COc1cnc(Cl)cc1-c1cc(C)ncc1C(=O)Nc1nc2c(C(=O)O)cc(-c3c(C)cnn3C)cc2s1 [Example 164]	8.32 nM				
COc1cnc(Cl)cc1-c1cc(C)ncc1C(=O)Nc1nc2cnc(-c3c(C)nnn3C)c(C)c2s1 [Example 233, 2'-chloro-N-(6-(1,4-dimethyl-1H-1,2,3-triazol-5-yl)-7-methylthiazolo[4,5-c]pyridin-2-yl) -5'-methoxy-6-methyl-[4,4'-bipyridine]-3-carboxamide]	8.58 nM				
[2H]C([2H])([2H])Oc1cnc(Cl)cc1-c1cc(C)ncc1C(=O)Nc1nc2cnc(-c3c(C)nnn3C)c(F)c2s1 [Example 230, 2'-chloro-N-(6-(1,4-dimethyl-1H-1,2,3-triazol-5-yl)-7-fluorothiazolo[4,5-c]pyridin-2-yl)-5'-(methoxy-d3)-6-methyl-[4,4'-bipyridine]-3-carboxamide]	2.84 nM				
COc1cnc(Cl)cc1-c1cc(C)ncc1C(=O)Nc1nc2cnc(-c3ncon3)cc2s1 [Example 181, N-(6-(1,2,4-oxadiazol-3-yl)thiazolo[4,5-c]pyridin-2-yl)-2'-chloro-5'-methoxy-6-methyl-[4,4'-bipyridine]-3-carboxamide]	6.71 nM				
COc1cnc(C(F)F)cc1-c1cc(C)ncc1C(=O)Nc1nc2cnc(-c3c(C)cnn3C)cc2s1 [Example 174]	2.93 nM				
COc1cnc(Cl)c(F)c1-c1cc(C)ncc1C(=O)Nc1nc2cccnc2s1 [Example 38, 2'-chloro-3'-fluoro-5'-methoxy-6-methyl-N-(thiazol[5,4-b]pyridin-2-yl)-[4,4'-bipyridine]-3-carboxamide]					IC50 ([1]; Biochemical assay IC50 (nM)): < 50 nM and 17.3 nM
COc1cnc(Cl)cc1-c1cc(C)ncc1C(=O)Nc1nc2cnc(C3=CC[C@H](O)CC3)cc2s1 [Example 114, (R)-2'-chloro-N-(6-(4-hydroxycyclohex-1-en-1-yl)thiazolo[4,5-c]pyridin-2-yl)-5'-methoxy-6-methyl-[4.4'-bipyridine]-3-carboxamide]					IC50 ([1]; Biochemical assay IC50 (nM)): < 50 nM and 3.98 nM
COc1cnc(Cl)cc1-c1cc(C)ncc1C(=O)Nc1nc2c(s1)CN(c1ccc(Cl)cn1)CC2 [Example 92, 2'-chloro-N-(5-(5-chloropyridin-2-yl)-4,5,6,7-tetrahydrothiazol[5,4-c]pyridin-2-)-5'-methoxy-6-methyl-[4,4'-bipyridine]-3-carboxamide]					IC50 ([1]; Biochemical assay IC50 (nM)): 50 to 200 nM and 59.9 nM
COc1cnc(C(F)F)cc1-c1cc(N2CCN(C)C3(CC3)C2=O)ncc1C(=O)Nc1nc2cnc(-c3c(C)nnn3C)cc2s1 [Example 197]					IC50 [1, 6]: 8.57 nM
[2H]C1(O)CCN(c2ccc3nc(NC(=O)c4cnc(C)cc4-c4cc(Cl)ncc4OC)sc3n2)CC1 [Example 112, 2'-chloro-N-(5-(4-hydroxypiperidin-1-yl-4-deuterium)thiazol[5,4-b]pyridin-2-yl)-5'-met hoxy-6-methyl-[4,4'-bipyridine]-3-carboxamide]					IC50 ([1]; Biochemical assay IC50 (nM), ADP-Glo assay, ATPase activity of Pol θ helicase domain, ssDNA substrate): 10 nM
COc1cnc(Cl)cc1-c1cc(C)ncc1C(=O)Nc1nc2ccc(-c3ccc(Cl)cn3)nc2s1 [Example 44, 2'-chloro-N-(5-(5-chloropyridin-2-yl)thiazol[5,4-b]pyridin-2-yl)-5'-methoxy-6-methyl-[4, 4'-bipyridine]-3-carboxamide]					IC50 ([1]; Biochemical assay IC50 (nM)): < 50 nM and 5.81 nM
COc1cnc(Cl)cc1-c1cc(C)ncc1C(=O)Nc1nc2nc(F)c(-c3c(C)nnn3C)cc2s1 [Example 232]					IC50 [1, 6]: 2.51 nM
